pIC50: −log10 of the molar value.
What was measured:
[1] = test system: HIV-1JR-FL Env on virions; assay: Single-molecule FRET of virion Env; details: saturating concentration (100 μM)
Experimental: Single-molecule fluorescence resonance energy transfer (smFRET): Viruses with HIV-1JR-FL Env that is double-tagged at V1-Q3 and V4-A1 were prepared for smFRET imaging, as described in Munro, Science 346, 759-763 (2014). The high (40:1) ratio of wild-type Env to tagged Env ensures that, on average, only one tagged protomer is available for imaging on a single virus particle. The Q3 and A1 double-tagged viruses allowed the incorporation of Cy3B and Cy5 fluorescent labels, respectively. Thus, the relative movements of the V1 and V4 regions in one gp120 subunit of an individual Env trimer could be monitored in real time. The smFRET images were acquired on an in-house-built total internal reflection fluorescent microscope, as described in Munro. HIV-1JR-FL viruses incubated with saturating concentrations (100 μM) of AEG-II-168 or control HIV-1JR-FL viruses without compound were used for smFRET imaging. Data were analyzed with the customized MATLAB (Mathworks) program SPARTAN as described in Juette, Nat Methods 13, 341-344 (2016). FRET trajectories meeting the criteria of quality (sufficient signal:noise ratio, single dye photobleaching, anti-correlated features between donor and acceptor intensity and fluorescence lifetime) were compiled into FRET histograms. Hidden Markov modeling was used to fit the FRET histograms with the sum of three Gaussian distributions. […]

[2] = test system: HIV-1 with HIV-1AD8 Env; assay: microbe, parasite or virus in culture; type: cell-based; details: Human immunodeficiency virus 1; Cf2Th-CD4/CCR5 target cells, 48 hours, luciferase; means and standard errors of four experiments; read-out: 50% inhibitory concentration (IC50), AD8
[3] = test system: HIV-1 with BG505 Env; assay: microbe, parasite or virus in culture; type: cell-based; details: Human immunodeficiency virus 1; Cf2Th-CD4/CCR5 target cells, 48 hours, luciferase; means and standard errors of four experiments; read-out: 50% inhibitory concentration (IC50), BG505
[4] = test system: HIV-1 Env complexes; assay: Association of gp120 with detergent-solubilized His6-tagged Env complexes (Ni-NTA precipitation, Western blot)
Experimental: Association of gp120 with Env complexes: The non-covalent association of gp120 with HIV-1 Env complexes was studied using carboxy-terminally His6-tagged Envs from three different sources: 1) VLPs produced from A549-Gag/Env cells; 2) A549 cells expressing HIV-1AD8 and HIV-1CH848 Envs; and 3) HOS cells transiently expressing wild-type HIV-1JR-FL Env and wild-type and mutant HIV-1AD8 Envs. VLP and cell lysates from A549 cells were prepared in 1.5% Triton X-100. Cell lysates from HOS cells were prepared in 1.5% Cymal-5 (Anatrace). The VLP and cell lysates were clarified as described above. DMSO, a compound described herein, sCD4 or the CD4-mimetic compound, BNM-III-170 (Melillo, ACS Med Chem Letters 7, 33-334, 2016), was added to the lysate. Aliquots of the lysates were saved for Western blotting to detect the gp160, gp120 and gp41 glycoproteins in the input sample. The bulk of the lysates was incubated with nickel-nitriloacetic acid (Ni-NTA) beads (Qiagen) for 1.5 hours at 4° C. The beads were pelleted (1000 rpm for 1 minute at room temperature), washed 3 times with wash buffer with 1% Triton X-100, boiled in LDS sample buffer, and analyzed by Western blotting as described above.

[5] = test system: cell-surface HIV-1AD8 Env (A549-Env cells); assay: Immunoprecipitation of cell-surface Env by antibody panel; type: cell-based; details: 10 μM
Experimental: (§1) Immunoprecipitation of cell-surface Env: Doxycycline-induced A549-Env cells were washed twice with washing buffer (1×PBS+5% FBS), with or without 10 μM BMS-806 or compounds described herein. The cells were then incubated with 5 μg/ml antibody for one hour at 4° C. in the continued presence or absence of the compounds described herein. After washing four times in washing buffer, the cells were lysed in NP-40 lysis buffer (0.5% NP-40, 0.5 M NaCl, 10 mM Tris, pH 7.5) for five minutes at 4° C. with gentle agitation. Unless specifically indicated otherwise, compounds described herein were not added to the NP-40 lysis buffer. The lysates were cleared by centrifugation at 13,200×g for 20 minutes at 4° C., and the clarified supernatants were incubated with Protein A-Sepharose beads (50 μl of 25 mg/ml in PBS per sample) for one hour at room temperature. The beads were pelleted (1000 rpm×1 min) and washed three times with final wash buffer (200 mM Tris-HCl, pH 8.0, 100 mM (NH4)2SO4, 1 M NaCl and 0.1% NP-40). The beads were suspended in LDS sample buffer, boiled and analyzed by Western blotting using 1:2000 goat anti-gp120 polyclonal antibody (ThermoFisher) and 1:2000 HRP-conjugated rabbit anti-goat IgG (ThermoFisher). The transmembrane Env was analyzed by Western blot with the 4E10 anti-gp41 antibody and HRP-conjugated goat anti-human IgG (Santa Cruz).

[6] = test system: cell-surface HIV-1AD8 Env; assay: Recognition of cell-surface Env by C34-Ig and CD4-Ig; type: cell-based
Experimental: as §1
The effect of BMS-806 on the recognition of the cell-surface HIV-1AD8 Env by CD4-Ig and C34-Ig was evaluated. CD4-Ig is a soluble CD4-immunoglobulin fusion protein, and C34-Ig contains the gp41 HR2 region fused to an immunoglobulin Fc. C34-Ig efficiently recognized the cell-surface Env only after incubation with soluble CD4 (sCD4) (FIG. 1C, left panel). BMS-806 blocked C34-Ig recognition of Env in the presence of sCD4.

[7] = test system: monomeric soluble HIV-1AD8 gp120; assay: Antibody recognition of monomeric gp120; type: binding; details: 10 μM; CD4-Ig, CD4BS bNAbs, 17b
Experimental: Antibody recognition of monomeric gp120: To produce gp120 monomers, a stop codon was introduced into the HIV-1AD8 env gene sequence encoding the gp120-gp4l junction. […] The supernatants were clarified by low-speed centrifugation and 0.45-μ filtration, and then used for precipitation by antibodies in the absence or presence of 10 μM BMS-806. Precipitates were Western blotted with a goat anti-gp120 polyclonal antibody (ThermoFisher) and 1:3000 HRP-conjugated rabbit anti-goat IgG antibody (ThermoFisher).

[8] = HIV-1AD8 Env variant in HOS cell lysates

| SMILES | Virion Env conformational state by smFRET [1] | pIC50 [2] | pIC50 [3] | sCD4-induced shedding of gp120 from Env complexes ([4]; 10 μM added to cell lysates) | BMS-806-induced gp120-Env association, I559F mutant [4, 8] | BMS-806-induced gp120-Env association, L193A mutant [4, 8] | Recognition of cell-surface Env by poorly neutralizing antibodies ([5]; 17b, 19b, 902090, F105) | Binding of bNAbs to mature cell-surface gp120 ([5]; PG9, PG16, PGT145, PGT151, 35022) | CD4-Ig binding to the gp120 and gp160 Envs ([6]; 500 nM) | C34-Ig binding to Env ([6]; 500 nM, with sCD4) | CD4-Ig recognition of Env ([6]; 10 μM) | Ligand binding to monomeric gp120 [7] |
| --- | --- | --- | --- | --- | --- | --- | --- | --- | --- | --- | --- | --- |
| COc1ccc(-c2ccc(CNC(=O)c3c(F)c(F)c(N=[N+]=[N-])c(F)c3F)o2)c2[nH]cc(C(=O)C(=O)N3CCN(C(=O)c4ccccc4)CC3)c12 [AEG-II-168] | maintained a State-1-dominant conformation | 8.55 | 9.66 | – | – | – | – | – | – | – | – | – |
| COc1ccnc2[nH]cc(C(=O)C(=O)N3CCN(C(=O)c4ccccc4)C[C@H]3C)c12 [BMS-806, reference compound] | – | 9.40 | 9.10 | could be blocked | abrogated responsiveness to BMS-806 | poor responsiveness | decreased the recognition of the uncleaved Env | increased the binding of some bNAbs | still detected | inhibited almost completely | inhibited CD4-Ig recognition of the gp120 glycoprotein on the mature Env, but not the uncleaved gp160 Env | mildly decreased gp120 binding |
